Results reported in ChEMBL document CHEMBL1201862, “PubChem BioAssay data set” (2004).
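Where inhibition never reached the appropriate level, the endpoint shown equals the highest concentration tested. Otherwise, values were interpolated linearly from a five-concentration, 48-hour dose response in 96-well plates. GI50 marks 50% less growth.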 Calls of active or inactive are those of the source. No stated cut-off is given here; in the data, active = GI50 up to about 1.1 µM and inactive = higher.

What was measured:
Test in all cases: DTP human tumour cell line panel, 48 h
LOX IMVI = tested on: LOX IMVI
SF-268 = tested on: SF-268
HOP-92 = tested on: HOP-92
OVCAR-3 = tested on: OVCAR-3
SK-OV-3 = tested on: SK-OV-3
M19-MEL = tested on: M19-MEL
RXF 393 = tested on: RXF 393
UACC-257 = tested on: UACC-257
HCT-116 = tested on: HCT-116
SK-MEL-2 = tested on: SK-MEL-2
K562 = tested on: K562
NCI-H460 = tested on: NCI-H460
TK-10 = tested on: TK-10
SF-295 = tested on: SF-295
M14 = tested on: M14
HL-60 = tested on: HL-60
CAKI-1 = tested on: CAKI-1

Measured: GI50

CC12CC[C@H](O)C(C)(C)[C@H]1CC[C@](C)(O)C2COc1ccc2ccc(=O)oc2c1 (stereo partly specified)
inactive: LOX IMVI > 100 µM | SF-268 > 100 µM | HOP-92 > 100 µM | OVCAR-3 > 100 µM | SK-OV-3 > 100 µM | M19-MEL > 100 µM | RXF 393 > 100 µM | UACC-257 > 100 µM | HCT-116 50.9 µM | SK-MEL-2 > 100 µM | K562 71 µM | NCI-H460 > 100 µM | TK-10 > 100 µM | SF-295 > 100 µM | M14 > 100 µM | HL-60 53.1 µM

O=C(O)CCN(CCCN(CCC(=O)O)CCC(=O)O)CCC(=O)O
inactive: LOX IMVI > 100 µM | SF-268 > 100 µM | HOP-92 > 100 µM | OVCAR-3 > 100 µM | SK-OV-3 > 100 µM | M19-MEL > 100 µM | HCT-116 > 100 µM | SK-MEL-2 > 100 µM | K562 > 100 µM | NCI-H460 > 100 µM | TK-10 > 100 µM | SF-295 > 100 µM | M14 > 100 µM | CAKI-1 > 100 µM | HL-60 > 100 µM

OCC1OC(NO)C(O)C(O)C1O (stereo unspecified)
inactive: LOX IMVI > 100 µM | SF-268 > 100 µM | HOP-92 > 100 µM | OVCAR-3 > 100 µM | M19-MEL > 100 µM | RXF 393 > 100 µM | UACC-257 > 100 µM | HCT-116 > 100 µM | K562 > 100 µM | NCI-H460 > 100 µM | TK-10 > 100 µM | SF-295 > 100 µM | M14 > 100 µM | CAKI-1 > 100 µM | HL-60 > 100 µM

O=C(O)C(C(=O)C(=O)C(C(=O)O)c1ccc(Cl)cc1)c1ccc(Cl)cc1 (stereo unspecified)
inactive: LOX IMVI 2.56 µM | SF-268 2.9 µM | HOP-92 3.11 µM | OVCAR-3 2.9 µM | SK-OV-3 5.89 µM | M19-MEL 3.39 µM | RXF 393 3.92 µM | UACC-257 2.75 µM | HCT-116 3.1 µM | K562 2.57 µM | NCI-H460 3.46 µM | TK-10 4.57 µM | SF-295 8.65 µM | M14 4.45 µM | CAKI-1 4.13 µM | HL-60 2.18 µM

O=C(Cn1cc(I)c(C(=O)NCC(O)CO)n1)NCC(O)CO (stereo unspecified)
inactive: LOX IMVI > 100 µM | SF-268 > 100 µM | HOP-92 > 100 µM | OVCAR-3 > 100 µM | SK-OV-3 > 100 µM | M19-MEL > 100 µM | RXF 393 > 100 µM | UACC-257 > 100 µM | HCT-116 > 100 µM | SK-MEL-2 > 100 µM | K562 > 100 µM | NCI-H460 > 100 µM | TK-10 > 100 µM | SF-295 > 100 µM | M14 > 100 µM | HL-60 > 100 µM

Cc1ccc2[nH]c(Sc3c([N+](=O)[O-])ncn3C)nc2c1
inactive: LOX IMVI 34.3 µM | SF-268 31.5 µM | HOP-92 16.1 µM | OVCAR-3 17.5 µM | SK-OV-3 30 µM | M19-MEL 18.5 µM | RXF 393 16.1 µM | UACC-257 12.6 µM | HCT-116 21.1 µM | NCI-H460 35.2 µM | TK-10 44.9 µM | SF-295 > 100 µM | M14 17.6 µM | CAKI-1 11.9 µM

CC(=O)c1ccc(NC(=O)COC(=O)c2cccc3c(=O)c4ccccc4[nH]c23)cc1
inactive: LOX IMVI 13.4 µM | SF-268 20.5 µM | HOP-92 25.9 µM | OVCAR-3 27.2 µM | SK-OV-3 67.8 µM | M19-MEL 25.5 µM | RXF 393 18 µM | UACC-257 57.7 µM | HCT-116 12.2 µM | K562 > 100 µM | NCI-H460 22.6 µM | TK-10 21.7 µM | SF-295 15.8 µM | M14 31.4 µM | CAKI-1 > 100 µM | HL-60 > 100 µM

CCCCCCCCCCCCCC(=O)CC(=O)c1c(O)cccc1O
inactive: LOX IMVI 19.6 µM | SF-268 61.8 µM | HOP-92 22.4 µM | OVCAR-3 18.9 µM | SK-OV-3 38.6 µM | M19-MEL 30.5 µM | RXF 393 > 100 µM | UACC-257 32.4 µM | HCT-116 43.6 µM | SK-MEL-2 19.2 µM | K562 21 µM | NCI-H460 36.1 µM | TK-10 51.6 µM | SF-295 42.4 µM | M14 44.7 µM | CAKI-1 34 µM | HL-60 20.8 µM

Clc1ccc(C(c2ccc(Cl)cc2)c2ccccn2)cc1
inactive: LOX IMVI 16.7 µM | SF-268 23.5 µM | HOP-92 15.8 µM | OVCAR-3 > 10 µM | SK-OV-3 34.6 µM | M19-MEL 31.4 µM | RXF 393 14.5 µM | UACC-257 18.8 µM | SK-MEL-2 19 µM | K562 21.6 µM | NCI-H460 17.1 µM | TK-10 19.7 µM | SF-295 19.1 µM | M14 21.1 µM | CAKI-1 23.2 µM | HL-60 20.6 µM

Cc1cc2c(c(C#N)c1C)NC(=O)C(CC(=O)O)C2=O (stereo unspecified)
inactive: LOX IMVI > 100 µM | SF-268 > 100 µM | HOP-92 > 100 µM | OVCAR-3 > 100 µM | SK-OV-3 > 100 µM | M19-MEL > 100 µM | RXF 393 > 100 µM | UACC-257 > 100 µM | HCT-116 > 100 µM | SK-MEL-2 > 100 µM | K562 > 100 µM | NCI-H460 > 100 µM | TK-10 > 100 µM | SF-295 > 100 µM | M14 > 100 µM | CAKI-1 > 100 µM | HL-60 > 100 µM

C[N+](C)(C)CC(=O)N/N=C(/Cc1cc(=O)oc2cc(O)ccc12)C(=O)Nc1ccc(Cl)cc1
inactive: SF-268 > 100 µM | OVCAR-3 > 100 µM | SK-OV-3 > 100 µM | M19-MEL > 100 µM | RXF 393 > 100 µM | UACC-257 > 100 µM | HCT-116 > 100 µM | SK-MEL-2 > 100 µM | K562 > 100 µM | NCI-H460 > 100 µM | TK-10 > 100 µM | SF-295 > 100 µM | M14 > 100 µM | CAKI-1 > 100 µM | HL-60 > 100 µM

C=C1C(=O)c2cc3c(cc2C(c2cc(OC)c(OC)c(OC)c2)[C@@H]1C(=O)O)OCO3 (stereo partly specified)
inactive: LOX IMVI 43.6 µM | HOP-92 15.5 µM | OVCAR-3 23.2 µM | SK-OV-3 42.6 µM | M19-MEL 49.1 µM | RXF 393 43.9 µM | UACC-257 67 µM | HCT-116 48.4 µM | K562 32.1 µM | NCI-H460 37.1 µM | TK-10 > 100 µM | SF-295 38.3 µM | M14 28.1 µM | CAKI-1 54.2 µM

CCCN/C(N)=N/C#N
inactive: SF-268 44.2 µM | HOP-92 > 100 µM | OVCAR-3 > 100 µM | SK-OV-3 > 100 µM | M19-MEL 77.6 µM | RXF 393 > 100 µM | UACC-257 > 100 µM | HCT-116 67 µM | SK-MEL-2 > 100 µM | K562 60.3 µM | NCI-H460 > 100 µM | TK-10 > 100 µM | SF-295 > 100 µM | M14 > 100 µM | CAKI-1 > 100 µM | HL-60 > 100 µM

CCCCCCCCCCCCCP(=O)(OC)OC
inactive: LOX IMVI 19.3 µM | HOP-92 16.9 µM | OVCAR-3 20.2 µM | SK-OV-3 19 µM | M19-MEL 19.3 µM | RXF 393 31.8 µM | UACC-257 19.4 µM | HCT-116 19.6 µM | SK-MEL-2 17.5 µM | K562 23.2 µM | NCI-H460 17.1 µM | TK-10 17.8 µM | SF-295 21.5 µM | M14 19.9 µM | CAKI-1 18 µM | HL-60 15.6 µM

Nc1ccc(C(=O)N/C(=C\c2cccc([N+](=O)[O-])c2)c2nc3ccccc3[nH]2)cc1
inactive: LOX IMVI > 100 µM | SF-268 21.8 µM | HOP-92 23.6 µM | OVCAR-3 50.2 µM | SK-OV-3 29.2 µM | M19-MEL > 100 µM | RXF 393 24.9 µM | HCT-116 41.4 µM | SK-MEL-2 37.2 µM | K562 > 100 µM | NCI-H460 74.8 µM | TK-10 49 µM | SF-295 28.4 µM | M14 > 100 µM | CAKI-1 47 µM | HL-60 > 81.7 µM

COC(=O)C(=O)C1(CCC(C)=O)c2ccccc2-c2c(C)ccc(C)c21 (stereo unspecified)
inactive: LOX IMVI 36.8 µM | SF-268 52.2 µM | OVCAR-3 32 µM | SK-OV-3 84.1 µM | M19-MEL 64 µM | RXF 393 32.1 µM | UACC-257 33 µM | HCT-116 35.7 µM | SK-MEL-2 40.6 µM | K562 30.1 µM | NCI-H460 33 µM | TK-10 39.6 µM | SF-295 81.7 µM | M14 46.8 µM | CAKI-1 31.4 µM | HL-60 10.3 µM

CN(C(=O)C12C3C4C1C1C4(C(=O)C45C6C7C4C4C5C6C74C)C3C12C)C(C)(C)C (stereo unspecified)
inactive: LOX IMVI 48.1 µM | SF-268 > 100 µM | HOP-92 28.6 µM | SK-OV-3 90.4 µM | M19-MEL 45.9 µM | UACC-257 32.5 µM | HCT-116 52.7 µM | SK-MEL-2 > 100 µM | K562 26.4 µM | NCI-H460 54.6 µM | TK-10 > 100 µM | SF-295 > 100 µM | M14 > 100 µM | CAKI-1 > 100 µM | HL-60 14.8 µM
